Measured values published in US8765741B2, “5,6-dihydro-1H-pyridin-2-one compounds” (Anadys Pharmaceuticals, Inc., priority 2007, dated 2014).

Test system: not given
Test: not given
Settings: not given

Row | melting point [°C] | SMILES
1 | 203.8 to 205.7 | CS(=O)(=O)Nc1ccc2c(c1)S(=O)(=O)N=C(C1=C(O)[C@@H]3C4CCC(CC4)[C@@H]3N(Cc3ccc(F)cc3)C1=O)N2 [Example 49, N-{3-[(2S,7R)-3-(4-Fluoro-benzyl)-6-hydroxy-4-oxo-3-aza-tricyclo[6.2.2.0^2,7]dodec-5-en-5-yl]-1,1-dioxo-1,4-dihydro-1λ^6-benzo[1,2,4]thiadiazin-7-yl}-methanesulfonamide]
2 | 203.8 to 205.7 | CS(=O)(=O)Nc1ccc2c(c1)S(=O)(=O)N=C(C1=C(O)[C@@H]3[C@H]4CC[C@H](CC4)[C@@H]3N(Cc3ccc(F)cc3)C1=O)N2 (relative stereo) [Example 50, cis-N-{3-[3-(4-Fluoro-benzyl)-6-hydroxy-4-oxo-3-aza-tricyclo[6.2.2.0^2,7]dodec-5-en-5-yl]-1,1-dioxo-1,4-dihydro-1λ^6-benzo[1,2,4]thiadiazin-7-yl}-methanesulfonamide]

Target: NS5B polymerase (Hepatitis C virus genotype 1b, UniProt P26663)
Sequence (P26663 2420-3010): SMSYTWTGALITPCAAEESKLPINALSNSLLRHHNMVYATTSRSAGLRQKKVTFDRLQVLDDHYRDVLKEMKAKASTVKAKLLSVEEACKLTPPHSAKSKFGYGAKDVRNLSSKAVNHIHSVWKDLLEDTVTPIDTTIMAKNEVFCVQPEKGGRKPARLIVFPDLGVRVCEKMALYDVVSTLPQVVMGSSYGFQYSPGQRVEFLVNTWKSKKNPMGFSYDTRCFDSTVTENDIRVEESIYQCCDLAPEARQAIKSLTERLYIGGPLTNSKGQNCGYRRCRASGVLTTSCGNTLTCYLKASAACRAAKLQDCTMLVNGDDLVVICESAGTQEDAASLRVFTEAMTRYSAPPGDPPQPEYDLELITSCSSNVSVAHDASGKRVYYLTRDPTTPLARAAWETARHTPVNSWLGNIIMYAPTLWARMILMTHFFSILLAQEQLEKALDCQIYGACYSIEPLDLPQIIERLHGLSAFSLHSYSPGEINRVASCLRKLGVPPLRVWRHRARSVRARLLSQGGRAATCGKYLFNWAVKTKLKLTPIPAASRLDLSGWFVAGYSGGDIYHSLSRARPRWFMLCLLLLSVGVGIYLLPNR
Test: biochemical
Settings: not given
Experimental: Compounds were tested for HCV polymerase inhibition. Assays were performed in a 96-well streptavidin-coated FlashPlate using 20 nM enzyme, 0.5 μCi of [α-^33P]GTP, 0.6 μM GTP, and 250 nM 5′biotinylated oligo (rG13)/poly rC in 20 mM Tris-HCl, pH 7.5, 5 mM MgCl2, 5 mM dithiothreitol, 0.1 g/L bovine serum albumin, and 100 U/mL RNAse inhibitor. The reaction was stopped by aspiration after 75 min at 28° C. and the plate was washed several times. After washing and drying the plate, incorporated radioactivity was counted using a Microbeta scintillation counter. IC50 values were calculated relative to the uninhibited control and inhibition data were fitted to a 4-parameter IC50 equation.

Row | SMILES | IC50 [nM]
3 | CS(=O)(=O)Nc1ccc2c(c1)S(=O)(=O)N=C(C1=C(O)[C@@H]3[C@@H]4CC[C@@H](C4)[C@@H]3N(Cc3ccc(F)cc3)C1=O)N2 [Example 4, N-{3-[(1S,2S,7R,8R)-3-(4-Fluoro-benzyl)-6-hydroxy-4-oxo-3-aza-tricyclo[6.2.1.0^2,7]undec-5-en-5-yl]-1,1-dioxo-1,4-dihydro-1λ^6-benzo[1,2,4]thiadiazin-7-yl}-methanesulfonamide] | < 20

Same assay, conditions: NS5B polymerase inhibition; 20 nM enzyme, 75 min at 28° C.; read-out: IC50

Row | SMILES | IC50 [nM]
4 | CS(=O)(=O)Nc1ccc2c(c1)S(=O)(=O)N=C(C1=C(O)[C@H]3[C@H]([C@@H]4CC[C@H]3O4)N(Cc3ccc(F)cc3)C1=O)N2 [Example 14, N-{3-[(1S,2R,7S,8R)-3-(4-Fluoro-benzyl)-6-hydroxy-4-oxo-11-oxa-3-aza-tricyclo[6.2.1.0^2,7]undec-5-en-5-yl]-1,1-dioxo-1,4-dihydro-1λ^6-benzo[1,2,4]thiadiazin-7-yl}-methanesulfonamide] | < 20
5 | O=C1C(C2=NS(=O)(=O)c3cc(NS(=O)(=O)C4CC4)ccc3N2)=C(O)C2C3C=CC(C3)C2N1Cc1ccc(F)cc1 (racemic) [Example 46, (rac-di-exo)-Cyclopropanesulfonic acid{3-[3-(4-fluoro-benzyl)-6-hydroxy-4-oxo-3-aza-tricyclo[6.2.1.0^2,7]undeca-5,9-dien-5-yl]-1,1-dioxo-1,4-dihydro-1λ^6-benzo[1,2,4]thiadiazin-7-yl}-amide] | < 20
6 | CC(C)(C)CCN1C(=O)C(C2=NS(=O)(=O)c3cc(NS(C)(=O)=O)ccc3N2)=C(O)C2C3CCC(O3)C21 (racemic) [Example 13, (rac-di-exo)-N-{3-[3-(3,3-Dimethyl-butyl)-6-hydroxy-4-oxo-11-oxa-3-aza-tricyclo[6.2.1.0^2,7]undec-5-en-5-yl]-1,1-dioxo-1,4-dihydro-1λ^6-benzo[1,2,4]thiadiazin-7-yl}-methanesulfonamide] | 20 to 100
7 | O=C1C(C2=NS(=O)(=O)c3cc(C4CCCS4(=O)=O)ccc3N2)=C(O)[C@@H]2[C@H]3CC[C@H](C3)[C@@H]2N1Cc1ccc(F)cc1 (stereo partly drawn) [Example 21, (1R,2S,7R,8S)-5-[7-(1,1-Dioxo-tetrahydro-1λ^6-thiophen-2-yl)-1,1-dioxo-1,4-dihydro-1λ^6-benzo[1,2,4]thiadiazin-3-yl]-3-(4-fluoro-benzyl)-6-hydroxy-3-aza-tricyclo[6.2.1.0^2,7]undec-5-en-4-one] | 20 to 100
8 | CC(C)CCN1C(=O)C(C2=NS(=O)(=O)c3cc(NS(=O)(=O)C4CC4)ccc3N2)=C(O)C2C3C=CC(C3)C21 (racemic) [Example 45, (rac-di-exo)-Cyclopropanesulfonic acid{3-[6-hydroxy-3-(3-methyl-butyl)-4-oxo-3-aza-tricyclo[6.2.1.0^2,7]undeca-5,9-dien-5-yl]-1,1-dioxo-1,4-dihydro-1λ^6-benzo[1,2,4]thiadiazin-7-yl}-amide] | 20 to 100
9 | O=C1C(C2=NS(=O)(=O)c3cc(NS(=O)(=O)c4ccccc4)ccc3N2)=C(O)[C@@H]2[C@H]3CC[C@H](C3)[C@@H]2N1Cc1ccc(F)cc1 [Example 41, N-{3-[(1R,2S,7R,8S)-3-(4-Fluoro-benzyl)-6-hydroxy-4-oxo-3-aza-tricyclo[6.2.1.0^2,7]undec-5-en-5-yl]-1,1-dioxo-1,4-dihydro-1λ^6-benzo[1,2,4]thiadiazin-7-yl}-benzenesulfonamide] | 20 to 100
10 | CN(c1ccc2c(c1)S(=O)(=O)N=C(C1=C(O)[C@@H]3[C@H]4CC[C@H](C4)[C@@H]3N(Cc3ccc(F)c(F)c3)C1=O)N2)S(C)(=O)=O [Example 17, N-{3-[(1R,2S,7R,8S)-3-(3,4-Difluoro-benzyl)-6-hydroxy-4-oxo-3-aza-tricyclo[6.2.1.0^2,7]undec-5-en-5-yl]-1,1-dioxo-1,4-dihydro-1λ^6-benzo[1,2,4]thiadiazin-7-yl}-N-methyl-methanesulfonamide] | 20 to 100
11 | CS(=O)(=O)Nc1ccc2c(c1)S(=O)(=O)N=C(C1=C(O)C3C4C=CC(C4)C3N(Cc3ccc(F)cc3)C1=O)N2 (racemic) [Example 9, (rac-di-exo)-N-{3-[3-(4-Fluoro-benzyl)-6-hydroxy-4-oxo-3-aza-tricyclo[6.2.1.0^2,7]undeca-5,9-dien-5-yl]-1,1-dioxo-1,4-dihydro-1λ^6-benzo[1,2,4]thiadiazin-7-yl}-methanesulfonamide] | 20 to 100
12 | Cc1cc(CN2C(=O)C(C3=NS(=O)(=O)c4cc(NS(C)(=O)=O)ccc4N3)=C(O)C3C4CCC(O4)C32)ccc1F (racemic) [Example 12, (rac-di-exo)-N-{3-[3-(4-Fluoro-3-methyl-benzyl)-6-hydroxy-4-oxo-11-oxa-3-aza-tricyclo[6.2.1.0^2,7]undec-5-en-5-yl]-1,1-dioxo-1,4-dihydro-1λ^6-benzo[1,2,4]thiadiazin-7-yl}-methanesulfonamide] | < 20
13 | CC(C)CCN1C(=O)C(C2=CS(=O)(=O)c3cc(NS(C)(=O)=O)ccc3N2)=C(O)C2C3C=CC(C3)C21 (racemic) [Example 38, (rac-di-exo)-N-{3-[6-Hydroxy-3-(3-methyl-butyl)-4-oxo-3-aza-tricyclo[6.2.1.0^2,7]undeca-5,9-dien-5-yl]-1,1-dioxo-1,4-dihydro-1λ^6-benzo[1,4]thiazin-7-yl}-methanesulfonamide] | 20 to 100
14 | CS(=O)(=O)Nc1ccc2c(c1)S(=O)(=O)N=C(C1=C(O)C3C4CCC(O4)C3N(CCC3CC3)C1=O)N2 (racemic) [Example 23, (rac-di-exo)-N-{3-[3-(2-Cyclopropyl-ethyl)-6-hydroxy-4-oxo-11-oxa-3-aza-tricyclo[6.2.1.0^2,7]undec-5-en-5-yl]-1,1-dioxo-1,4-dihydro-1λ^6-benzo[1,2,4]thiadiazin-7-yl}-methanesulfonamide] | < 20

The remaining lines, values ahead:

Row | IC50 [nM] | SMILES
15 | < 20 | CS(=O)(=O)Nc1ccc2c(c1)S(=O)(=O)N=C(C1=C(O)[C@@H]3C4CCC(CC4)[C@@H]3N(Cc3ccc(F)cc3)C1=O)N2 [Example 49, N-{3-[(2S,7R)-3-(4-Fluoro-benzyl)-6-hydroxy-4-oxo-3-aza-tricyclo[6.2.2.0^2,7]dodec-5-en-5-yl]-1,1-dioxo-1,4-dihydro-1λ^6-benzo[1,2,4]thiadiazin-7-yl}-methanesulfonamide]
16 | 100 to 1000 | O=C1C(C2=NS(=O)(=O)c3cc(NS(=O)(=O)c4cccnc4)ccc3N2)=C(O)C2C([C@@H]3CC[C@H]2C3)N1Cc1ccc(F)cc1 (stereo partly drawn) [Example 54, Pyridine-3-sulfonic acid{3-[(1R,2S,7R,8S)-3-(4-fluoro-benzyl)-6-hydroxy-4-oxo-3-aza-tricyclo[6.2.1.0^2,7]undec-5-en-5-yl]-1,1-dioxo-1,4-dihydro-1λ^6-benzo[1,2,4]thiadiazin-7-yl}-amide]
17 | 20 to 100 | Cc1ccc(CN2C(=O)C(C3=NS(=O)(=O)c4cc(NS(C)(=O)=O)ccc4N3)=C(O)[C@@H]3[C@H]4CC[C@H](C4)[C@@H]32)cc1F [Example 60, N-{3-[(1R,2S,7R,8S)-3-(3-Fluoro-4-methyl-benzyl)-6-hydroxy-4-oxo-3-aza-tricyclo[6.2.1.0^2,7]undec-5-en-5-yl]-1,1-dioxo-1,4-dihydro-1λ^6-benzo[1,2,4]thiadiazin-7-yl}-methanesulfonamide]
18 | 20 to 100 | CS(=O)(=O)Nc1cnc2c(c1)S(=O)(=O)N=C(C1=C(O)[C@@H]3[C@H]4CC[C@H](C4)[C@@H]3N(Cc3ccc(F)cc3)C1=O)N2 [Example 62, N-{3-[(1R,2S,7R,8S)-3-(4-Fluoro-benzyl)-6-hydroxy-4-oxo-3-aza-tricyclo[6.2.1.0^2,7]undec-5-en-5-yl]-1,1-dioxo-1,4-dihydro-1λ^6-pyrido[2,3-e][1,2,4]thiadiazin-7-yl}-methanesulfonamide]
19 | < 20 | CS(=O)(=O)Nc1ccc2c(c1)S(=O)(=O)N=C(C1=C(O)[C@@H]3[C@H]4CC[C@H](C4)[C@@H]3N(Cc3ccc(F)c(Cl)c3)C1=O)N2 [Example 58, (1R,2S,7R,8S)-N-{3-[3-(3-Chloro-4-fluoro-benzyl)-6-hydroxy-4-oxo-3-aza-tricyclo[6.2.1.0^2,7]undec-5-en-5-yl]-1,1-dioxo-1,4-dihydro-1λ^6-benzo[1,2,4]thiadiazin-7-yl}-methanesulfonamide]
20 | 20 to 100 | CS(=O)(=O)Nc1ccc2c(c1)S(=O)(=O)N=C(C1=C(O)[C@@H]3[C@H]4CC[C@H](C4)[C@@H]3N(CCC3CC3)C1=O)N2 [Example 66, N-{3-[(1R,2S,7R,8S)-3-(2-Cyclopropyl-ethyl)-6-hydroxy-4-oxo-3-aza-tricyclo[6.2.1.0^2,7]undec-5-en-5-yl]-1,1-dioxo-1,4-dihydro-1λ^6-benzo[1,2,4]thiadiazin-7-yl}-methanesulfonamide]
21 | < 20 | CS(=O)(=O)Nc1ccc2c(c1)S(=O)(=O)N=C(C1=C(O)[C@@H]3[C@H]4CC[C@H](CC4)[C@@H]3N(Cc3ccc(F)cc3)C1=O)N2 (relative stereo) [Example 50, cis-N-{3-[3-(4-Fluoro-benzyl)-6-hydroxy-4-oxo-3-aza-tricyclo[6.2.2.0^2,7]dodec-5-en-5-yl]-1,1-dioxo-1,4-dihydro-1λ^6-benzo[1,2,4]thiadiazin-7-yl}-methanesulfonamide]
22 | 1000 to 100000 | CC(C)CCN1C(=O)C(C2=NS(=O)(=O)c3cc(N4CCCC4)ccc3N2)=C(O)[C@@H]2[C@H]3CC[C@H](C3)[C@@H]21 [Example 53, (1R,2S,7R,8S)-5-(1,1-Dioxo-7-pyrrolidin-1-yl-1,4-dihydro-1λ^6-benzo[1,2,4]thiadiazin-3-yl)-6-hydroxy-3-(3-methyl-butyl)-3-aza-tricyclo[6.2.1.0^2,7]undec-5-en-4-one]
